# Laboratory results from ChEMBL document CHEMBL5380843 (J Med Chem, 2023).
# Legend:
# [1] = Acute toxicity in 12 hr fasted male CD-1 (ICR) mouse assessed as death at 2 g/Kg, IG measured after 14 days; conditions: in vivo, po, 2000 mg/kg, 336 h, time 14 day
# [2] = tested on: Human immunodeficiency virus 1; assay: Antiviral activity against wild type HIV-1 IIIB harboring reverse transcriptase Y188L mutant infected in human MT4 cells assessed as protection against virus-induced cytopathic effect incubated for 5 days by MTT assay; type: functional, organism-based; conditions: Human immunodeficiency virus 1, IIIB, MT4, 120 h
# Cytochrome P450 1A2 = target: T1, Cytochrome P450 1A2 (Homo sapiens, UniProt P05177); assay: Inhibition of CYP1A2 in human liver microsomes using phenacetin as substrate incubated for 15 to 45 mins in presence of NADPH; type: ADME, Microsome
# T1 sequence (P05177 whole entry): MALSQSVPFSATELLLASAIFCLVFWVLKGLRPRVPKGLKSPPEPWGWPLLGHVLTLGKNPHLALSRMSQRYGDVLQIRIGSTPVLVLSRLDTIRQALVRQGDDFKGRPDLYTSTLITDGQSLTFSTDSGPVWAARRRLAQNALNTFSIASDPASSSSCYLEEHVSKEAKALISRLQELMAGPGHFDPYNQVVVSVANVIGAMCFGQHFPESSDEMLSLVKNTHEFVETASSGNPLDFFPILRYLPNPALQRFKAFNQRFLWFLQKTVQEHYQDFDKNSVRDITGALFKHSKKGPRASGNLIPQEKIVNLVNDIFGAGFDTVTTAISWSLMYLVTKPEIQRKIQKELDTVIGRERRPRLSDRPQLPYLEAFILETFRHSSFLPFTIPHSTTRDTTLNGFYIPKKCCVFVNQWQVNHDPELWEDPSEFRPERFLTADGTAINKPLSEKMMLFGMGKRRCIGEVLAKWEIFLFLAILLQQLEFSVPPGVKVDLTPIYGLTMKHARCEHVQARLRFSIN
# [3] = Acute toxicity in 12 hr fasted female CD-1(ICR) mouse assessed as pathological damage in liver at 2 g/Kg, IG measured after 14 days by H and E staining based analysis; type: tissue-based; conditions: in vivo, po, 2000 mg/kg, 336 h, time 14 day
# [4] = Acute toxicity in 12 hr fasted female CD-1(ICR) mouse assessed as pathological damage in heart at 2 g/Kg, IG measured after 14 days by H and E staining based analysis; type: tissue-based; conditions: in vivo, po, 2000 mg/kg, 336 h, time 14 day
# [5] = Half life in Sprague-Dawley rat at 1 mg/kg, iv measured upto 24 hrs by LC-MS/MS analysis; type: ADME, organism-based; conditions: in vivo
# [6] = Acute toxicity in 12 hr fasted male CD-1(ICR) mouse assessed as changes in body weight at 2 g/Kg, IG measured after 14 days; conditions: in vivo, po, 2000 mg/kg, 336 h, time 14 day
# [7] = Acute toxicity in 12 hr fasted male CD-1(ICR) mouse assessed as pathological damage in lung at 2 g/Kg, IG measured after 14 days by H and E staining based analysis; type: tissue-based; conditions: in vivo, po, 2000 mg/kg, 336 h, time 14 day
# [8] = Acute toxicity in 12 hr fasted female CD-1 (ICR) mouse assessed as death at 2 g/Kg, IG measured after 14 days; conditions: in vivo, po, 2000 mg/kg, 336 h, time 14 day
# [9] = Acute toxicity in 12 hr fasted male CD-1(ICR) mouse assessed as pathological damage in kidney at 2 g/Kg, IG measured after 14 days by H and E staining based analysis; type: tissue-based; conditions: in vivo, po, 2000 mg/kg, 336 h, time 14 day
# [10] = Acute toxicity in 12 hr fasted male CD-1(ICR) mouse assessed as pathological damage in heart at 2 g/Kg, IG measured after 14 days by H and E staining based analysis; type: tissue-based; conditions: in vivo, po, 2000 mg/kg, 336 h, time 14 day
# [11] = Resistant factor, ratio of EC50 for antiviral activity against HIV-1 IIIB harboring reverse transcriptase K103N mutant to EC50 for antiviral activity against wild type HIV-1 IIIB; type: functional
# [12] = Acute toxicity in 12 hr fasted female CD-1(ICR) mouse assessed as pathological damage in kidney at 2 g/Kg, IG measured after 14 days by H and E staining based analysis; type: tissue-based; conditions: in vivo, po, 2000 mg/kg, 336 h, time 14 day
# [13] = target: Human immunodeficiency virus type 1 reverse transcriptase (Human immunodeficiency virus 1, UniProt Q72547); assay: Inhibition of recombinant wild type HIV-1 reverse transcriptase using DNA/RNA as substrate incubated for 40 mins by Pico-green dye based spectrofluorometric analysis
# Cytochrome P450 2D6 = Cytochrome P450 2D6 (Homo sapiens, UniProt P10635); assay: Inhibition of CYP2D6 in human liver microsomes using dextromethorphan as substrate incubated for 15 to 45 mins in presence of NADPH; type: ADME, Microsome
# Cytochrome P450 2D6, sequence (P10635 whole entry): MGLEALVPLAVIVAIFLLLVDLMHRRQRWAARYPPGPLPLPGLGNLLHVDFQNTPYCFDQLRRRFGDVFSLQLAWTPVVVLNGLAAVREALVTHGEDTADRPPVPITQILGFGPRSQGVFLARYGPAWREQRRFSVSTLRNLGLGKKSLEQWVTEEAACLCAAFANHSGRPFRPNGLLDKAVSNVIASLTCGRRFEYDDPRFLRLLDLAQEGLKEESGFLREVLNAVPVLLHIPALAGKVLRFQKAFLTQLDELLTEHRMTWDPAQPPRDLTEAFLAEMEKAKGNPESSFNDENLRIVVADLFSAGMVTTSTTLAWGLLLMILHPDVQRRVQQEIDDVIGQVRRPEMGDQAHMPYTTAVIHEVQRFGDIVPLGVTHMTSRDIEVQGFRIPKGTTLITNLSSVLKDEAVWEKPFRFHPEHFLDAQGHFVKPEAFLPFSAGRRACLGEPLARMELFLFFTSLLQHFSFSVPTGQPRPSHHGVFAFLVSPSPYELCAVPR
# [14] = Acute toxicity in 12 hr fasted male CD-1(ICR) mouse assessed as pathological damage in spleen at 2 g/Kg, IG measured after 14 days by H and E staining based analysis; type: tissue-based; conditions: in vivo, po, 2000 mg/kg, 336 h, time 14 day
# [15] = MRT (0 to infinity) in Sprague-Dawley rat at 1 mg/kg, iv measured upto 24 hrs by LC-MS/MS analysis; type: ADME, organism-based; conditions: in vivo
# Cytochrome P450 2C9 = Cytochrome P450 2C9 (Homo sapiens, UniProt P11712); assay: Inhibition of CYP2C9 in human liver microsomes using tolbutamide as substrate incubated for 15 to 45 mins in presence of NADPH
# Cytochrome P450 2C9, sequence (P11712 whole entry): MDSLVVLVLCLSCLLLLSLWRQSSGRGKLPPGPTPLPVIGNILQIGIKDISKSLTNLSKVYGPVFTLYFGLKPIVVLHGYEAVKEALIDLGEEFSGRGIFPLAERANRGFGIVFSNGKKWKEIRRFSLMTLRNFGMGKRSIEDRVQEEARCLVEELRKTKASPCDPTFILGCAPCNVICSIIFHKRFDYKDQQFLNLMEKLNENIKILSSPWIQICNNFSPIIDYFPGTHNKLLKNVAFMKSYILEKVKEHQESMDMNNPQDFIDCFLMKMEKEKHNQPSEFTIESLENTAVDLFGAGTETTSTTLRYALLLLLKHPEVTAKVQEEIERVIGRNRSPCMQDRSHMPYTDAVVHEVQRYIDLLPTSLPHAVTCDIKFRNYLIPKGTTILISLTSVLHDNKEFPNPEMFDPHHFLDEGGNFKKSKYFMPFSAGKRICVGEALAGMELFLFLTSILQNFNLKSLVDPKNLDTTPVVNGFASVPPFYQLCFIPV
# [16] = Cmax in Sprague-Dawley rat at 10 mg/kg, po measured upto 24 hrs by LC-MS/MS analysis; type: ADME, organism-based; design: time < 24 hrs, dose 10 mg/kg, route po; conditions: in vivo
# [17] = tested on: Human immunodeficiency virus 1; assay: Antiviral activity against wild type HIV-1 IIIB harboring reverse transcriptase E138K mutant infected in human MT4 cells assessed as protection against virus-induced cytopathic effect incubated for 5 days by MTT assay; type: functional, organism-based; conditions: Human immunodeficiency virus 1, IIIB, MT4, 120 h
# [18] = tested on: Human immunodeficiency virus 1; assay: Antiviral activity against wild type HIV-1 IIIB harboring reverse transcriptase Y181C mutant infected in human MT4 cells assessed as protection against virus-induced cytopathic effect incubated for 5 days by MTT assay; type: functional, organism-based; conditions: Human immunodeficiency virus 1, IIIB, MT4, 120 h
# [19] = MRT (0 to t) in Sprague-Dawley rat at 1 mg/kg, iv measured upto 24 hrs by LC-MS/MS analysis; type: ADME, organism-based; conditions: in vivo
# [20] = tested on: Human immunodeficiency virus 1; assay: Antiviral activity against wild type HIV-1 IIIB harboring reverse transcriptase […] mutant infected in human MT4 cells assessed as protection against virus-induced cytopathic effect incubated for 5 days by MTT assay; type: functional, organism-based; conditions: Human immunodeficiency virus 1, IIIB, MT4, 120 h
# [21] = Acute toxicity in 12 hr fasted female CD-1(ICR) mouse assessed as pathological damage in brain at 2 g/Kg, IG measured after 14 days by H and E staining based analysis; type: tissue-based; conditions: in vivo, po, 2000 mg/kg, 336 h, time 14 day
# [22] = MRT (0 to t) in Sprague-Dawley rat at 10 mg/kg, po measured upto 24 hrs by LC-MS/MS analysis; type: ADME, organism-based; conditions: in vivo
# Cytochrome P450 2C19 = Cytochrome P450 2C19 (Homo sapiens, UniProt P33261); assay: Inhibition of CYP2C19 in human liver microsomes using S-mephenytoin as substrate incubated for 15 to 45 mins in presence of NADPH; type: ADME, Microsome
# Cytochrome P450 2C19, sequence (P33261 whole entry): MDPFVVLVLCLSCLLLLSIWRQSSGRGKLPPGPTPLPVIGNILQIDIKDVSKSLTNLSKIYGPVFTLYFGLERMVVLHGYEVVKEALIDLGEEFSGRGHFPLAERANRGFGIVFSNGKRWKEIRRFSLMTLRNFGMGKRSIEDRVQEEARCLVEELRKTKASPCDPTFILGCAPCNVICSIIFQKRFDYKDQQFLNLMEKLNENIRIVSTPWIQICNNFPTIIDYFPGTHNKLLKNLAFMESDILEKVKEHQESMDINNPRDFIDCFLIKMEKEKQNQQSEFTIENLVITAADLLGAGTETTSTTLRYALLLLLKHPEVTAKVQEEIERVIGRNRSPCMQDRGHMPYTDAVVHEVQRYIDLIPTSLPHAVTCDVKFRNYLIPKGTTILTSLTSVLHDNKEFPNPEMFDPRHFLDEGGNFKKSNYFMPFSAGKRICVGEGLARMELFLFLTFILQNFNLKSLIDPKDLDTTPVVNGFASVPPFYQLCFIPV
# [23] = AUC (0 to infinity) in Sprague-Dawley rat at 10 mg/kg, po measured upto 24 hrs by LC-MS/MS analysis; type: ADME, organism-based; design: dose 10 mg/kg, time < 24 hrs, route po; conditions: in vivo
# [24] = Oral bioavailability in Sprague-Dawley rat at 10 mg/kg measured upto 24 hrs by LC-MS/MS analysis; type: ADME, organism-based; conditions: in vivo
# [25] = Acute toxicity in 12 hr fasted female CD-1(ICR) mouse assessed as changes in body weight at 2 g/Kg, IG measured after 14 days; conditions: in vivo, po, 2000 mg/kg, 336 h, time 14 day
# [26] = Resistant factor, ratio of EC50 for antiviral activity against HIV-1 IIIB harboring reverse transcriptase Y188L mutant to EC50 for antiviral activity against wild type HIV-1 IIIB; type: functional
smiles,measurement,setting,value
CONC(=O)c1cnc(Nc2ccc(C#N)cc2)nc1Oc1c(C)cc(-c2ccc(C#N)cc2)cc1C,Activity,[1],Non-Toxic
same,EC50,[2],52 nM
same,IC50,Cytochrome P450 1A2,> 50 µM
same,Activity,[3],Non-Toxic
same,Activity,[4],Non-Toxic
same,half-life,[5],220 min
same,Activity,[6],Non-Toxic
same,Activity,[7],Non-Toxic
same,Activity,[8],Non-Toxic
same,Activity,[9],Non-Toxic
same,Activity,[10],Non-Toxic
same,Ratio EC50,[11],3.5
same,Activity,[12],Non-Toxic
same,IC50,[13],47 nM
same,IC50,Cytochrome P450 2D6,> 50 µM
same,Activity,[14],Non-Toxic
same,MRT inf,[15],3.75 h
same,IC50,Cytochrome P450 2C9,18.5 µM
same,Cmax,[16],616 ng/mL
same,EC50,[17],6 nM
same,EC50,[18],29 nM
same,MRT last at 24 h,[19],3.56 h
same,EC50,[20],13 nM
same,Activity,[21],Non-Toxic
same,MRT last at 24 h,[22],4.54 h
same,IC50,Cytochrome P450 2C19,23.6 µM
same,AUC(0-inf),[23],3650 ng·h/mL
same,bioavailability,[24],31.2%
same,Activity,[25],Non-Toxic
same,Ratio EC50,[26],23
